Measurements published in PubChem BioAssay AID248 (DTP/NCI, 2004).
Where “and” joins values, the source holds several entries; their conditions need not be identical. Equal values may be shown once. Toxic doses and inconclusive results are not listed. Rule as the data show it: active = T/C of 150% or more; inactive = T/C below 125%.

Test system: L1210 leukemia ip in BDF1 mice, survival T/C
Assay: NCI In Vivo Anticancer Drug Screen. Data for tumor model L1210 Leukemia (intraperitoneal) in B6D2F1 (BDF1) mice
Conditions: endpoint: mean survival time, higher = longer survival
Summary of the method: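 Mice bearing the transplanted tumor received compound or vehicle. Survival of the treated group was divided by that of the vehicle-treated control group to give the ratio.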

[1] = dose: 20.0 mg/kg/injection, schedule: Q04DX003 (ip), vehicle: Klucel (hydroxypropylcellulose) (HPC)
[2] = dose: 40.0 mg/kg/injection, schedule: Q04DX003 (ip), vehicle: Klucel (hydroxypropylcellulose) (HPC)
[3] = dose: 100.0 mg/kg/injection, schedule: Q01DX001 (ip), vehicle: saline with Tween-80
[4] = dose: 200.0 mg/kg/injection, schedule: Q01DX001 (ip), vehicle: saline with Tween-80
[5] = dose: 400.0 mg/kg/injection, schedule: Q01DX001 (ip), vehicle: saline with Tween-80
[6] = dose: 25.0 mg/kg/injection, schedule: Q04DX003 (ip), vehicle: saline with Tween-80
[7] = dose: 50.0 mg/kg/injection, schedule: Q04DX003 (ip), vehicle: saline with Tween-80
[8] = dose: 100.0 mg/kg/injection, schedule: Q04DX003 (ip), vehicle: Klucel (hydroxypropylcellulose) (HPC)
[9] = dose: 100.0 mg/kg/injection, schedule: Q01DX001 (ip), vehicle: carboxymethylcellulose (CMC)
[10] = dose: 100.0 mg/kg/injection, schedule: Q04DX002 (ip), vehicle: Klucel (hydroxypropylcellulose) (HPC)
[11] = dose: 200.0 mg/kg/injection, schedule: Q04DX002 (ip), vehicle: Klucel (hydroxypropylcellulose) (HPC)
[12] = dose: 400.0 mg/kg/injection, schedule: Q04DX002 (ip), vehicle: Klucel (hydroxypropylcellulose) (HPC)
[13] = dose: 100.0 mg/kg/injection, schedule: Q04DX002 (ip), vehicle: saline
[14] = dose: 200.0 mg/kg/injection, schedule: Q04DX002 (ip), vehicle: saline
[15] = dose: 400.0 mg/kg/injection, schedule: Q04DX002 (ip), vehicle: saline
[16] = dose: 100.0 mg/kg/injection, schedule: Q01DX001 (ip), vehicle: saline
[17] = dose: 200.0 mg/kg/injection, schedule: Q01DX001 (ip), vehicle: saline
[18] = dose: 400.0 mg/kg/injection, schedule: Q01DX001 (ip), vehicle: saline

Measured: T/C

CCCC(=O)CC(C)=O.CCCC(=O)CC(C)=O.[Cu]
inactive: dose: 5.0 mg/kg/injection, schedule: Q04DX003 (ip), vehicle: Klucel (hydroxypropylcellulose) (HPC) 95 % of control | dose: 6.0 mg/kg/injection, schedule: Q01DX009 (ip), vehicle: Klucel (hydroxypropylcellulose) (HPC) 92 % of control | dose: 10.0 mg/kg/injection, schedule: Q04DX003 (ip), vehicle: Klucel (hydroxypropylcellulose) (HPC) 98 % of control | dose: 12.0 mg/kg/injection, schedule: Q01DX009 (ip), vehicle: Klucel (hydroxypropylcellulose) (HPC) 101 % of control | [1] 96 % of control | [2] 93 % of control

CCC(/C=C\C(C)C1CCC2C3CC=C4CC(OS(=O)(=O)c5ccc(C)cc5)CCC4(C)C3CCC12C)C(C)C (stereo not given)
inactive: [3] 90 % of control | [4] 90 % of control | [5] 86 % of control

Nc1ncnc(N)c1NC(=O)c1ccc(OCCOc2ccccc2)c(Cl)c1
inactive: [6] 89 % of control | [7] 93 % of control | dose: 100.0 mg/kg/injection, schedule: Q04DX003 (ip), vehicle: saline with Tween-80 98 % of control

O=C(CCN1CC1)Nc1ccc(Cl)c(Cl)c1
inactive: [1] 88 % of control | dose: 25.0 mg/kg/injection, schedule: Q01DX009 (ip), vehicle: Klucel (hydroxypropylcellulose) (HPC) 98 % of control | [2] 98 % of control | dose: 50.0 mg/kg/injection, schedule: Q01DX009 (ip), vehicle: Klucel (hydroxypropylcellulose) (HPC) 101 % of control | dose: 80.0 mg/kg/injection, schedule: Q04DX003 (ip), vehicle: Klucel (hydroxypropylcellulose) (HPC) 92 % of control | [8] 86 % of control

CC12CC3CC(C1)CC(CC(N)=O)(C3)C2
inactive: dose: 100.0 mg/kg/injection, schedule: Q04DX003 (ip), vehicle: saline 98 % of control | dose: 200.0 mg/kg/injection, schedule: Q04DX003 (ip), vehicle: saline 103 % of control | dose: 400.0 mg/kg/injection, schedule: Q04DX003 (ip), vehicle: saline 98 % of control

COC(OC)C1OC(c2ccccc2)OC2COC(c3ccccc3)OC21 (stereo not given)
inactive: dose: 12.5 mg/kg/injection, schedule: Q01DX009 (ip), vehicle: saline with Tween-80 92 % of control | dose: 12.5 mg/kg/injection, schedule: Q04DX003 (ip), vehicle: saline with Tween-80 93 % of control | dose: 25.0 mg/kg/injection, schedule: Q01DX009 (ip), vehicle: saline with Tween-80 92 % of control | [6] 92 % of control | dose: 50.0 mg/kg/injection, schedule: Q01DX009 (ip), vehicle: saline with Tween-80 92 % of control | [7] 92 % of control

CNC(=O)Nc1cc(C)ccc1Cl
inactive: dose: 50.0 mg/kg/injection, schedule: Q01DX009 (ip), vehicle: carboxymethylcellulose (CMC) 95 % of control and 89 % of control | dose: 87.5 mg/kg/injection, schedule: Q04DX003 (ip), vehicle: carboxymethylcellulose (CMC) 101 % of control | [9] 94 % of control | dose: 100.0 mg/kg/injection, schedule: Q04DX002 (ip), vehicle: carboxymethylcellulose (CMC) 100 % of control and 117 % of control | dose: 175.0 mg/kg/injection, schedule: Q04DX003 (ip), vehicle: carboxymethylcellulose (CMC) 93 % of control | dose: 200.0 mg/kg/injection, schedule: Q01DX001 (ip), vehicle: carboxymethylcellulose (CMC) 92 % of control | dose: 200.0 mg/kg/injection, schedule: Q04DX002 (ip), vehicle: carboxymethylcellulose (CMC) 100 % of control and 102 % of control | dose: 350.0 mg/kg/injection, schedule: Q04DX003 (ip), vehicle: carboxymethylcellulose (CMC) 104 % of control | dose: 400.0 mg/kg/injection, schedule: Q01DX001 (ip), vehicle: carboxymethylcellulose (CMC) 94 % of control | dose: 400.0 mg/kg/injection, schedule: Q01DX009 (ip), vehicle: carboxymethylcellulose (CMC) 93 % of control | dose: 400.0 mg/kg/injection, schedule: Q04DX002 (ip), vehicle: carboxymethylcellulose (CMC) 93 % of control and 96 % of control

COc1cc(C)ccc1OC(=O)Nc1ccccc1
inactive: [10] 109 % of control | [11] 113 % of control | [12] 106 % of control

C[CH2][Ge]([CH2]C)([CH2]C)[CH2]CCO
inactive: dose: 5.0 mg/kg/injection, schedule: Q04DX002 (ip), vehicle: saline with Tween-80 103 % of control | dose: 10.0 mg/kg/injection, schedule: Q04DX002 (ip), vehicle: saline with Tween-80 97 % of control | dose: 20.0 mg/kg/injection, schedule: Q04DX002 (ip), vehicle: saline with Tween-80 95 % of control | dose: 100.0 mg/kg/injection, schedule: Q04DX002 (ip), vehicle: saline with Tween-80 93 % of control | dose: 200.0 mg/kg/injection, schedule: Q04DX002 (ip), vehicle: saline with Tween-80 93 % of control

Cn1c(N)c(N=O)c(=O)n(C)c1=O
inactive: dose: 9.0 mg/kg/injection, schedule: Q01DX009 (ip), vehicle: saline with Tween-80 103 % of control | dose: 18.0 mg/kg/injection, schedule: Q01DX009 (ip), vehicle: saline with Tween-80 103 % of control | dose: 36.0 mg/kg/injection, schedule: Q01DX009 (ip), vehicle: saline with Tween-80 105 % of control | dose: 72.0 mg/kg/injection, schedule: Q01DX009 (ip), vehicle: saline with Tween-80 97 % of control | dose: 90.0 mg/kg/injection, schedule: Q01DX009 (ip), vehicle: saline with Tween-80 93 % of control | dose: 180.0 mg/kg/injection, schedule: Q01DX009 (ip), vehicle: saline with Tween-80 100 % of control | dose: 360.0 mg/kg/injection, schedule: Q01DX009 (ip), vehicle: saline with Tween-80 98 % of control | dose: 360.0 mg/kg/injection, schedule: Q04DX003 (ip), vehicle: saline with Tween-80 97 % of control | dose: 720.0 mg/kg/injection, schedule: Q04DX003 (ip), vehicle: saline with Tween-80 95 % of control

O=C(CCc1ccc(O)cc1)c1ccccc1
inactive: [10] 97 % of control | [11] 87 % of control | [12] 94 % of control

O=C1C2C3CCC(O3)C2C(=O)N1CCO (stereo not given)
inactive: [13] 109 % of control | [14] 106 % of control | [15] 98 % of control

C1C[N+]2(CCO1)CC[N+]1(CCOCC1)CC2
inactive: [13] 104 % of control | [14] 96 % of control | [15] 100 % of control

N#C/C(=C/c1c(Cl)cccc1Cl)C(N)=O
inactive: dose: 75.0 mg/kg/injection, schedule: Q01DX001 (ip), vehicle: saline 93 % of control

CCCCCCSc1n[nH]c(=O)[nH]c1=O
inactive: [16] 97 % of control | [17] 95 % of control | [18] 108 % of control

O=C(CC(c1ccccc1)N1CCCCC1)c1ccccc1 (stereo not given)
inactive: dose: 50.0 mg/kg/injection, schedule: Q01DX001 (ip), vehicle: saline 97 % of control | [16] 100 % of control | [17] 94 % of control | [18] 97 % of control

O=C1C=CC(=O)c2cc3ccccc3cc21
inactive: [9] 102 % of control

O=C(CS)OCCOC(=O)CS
inactive: dose: 50.0 mg/kg/injection, schedule: Q04DX003 (ip), vehicle: Klucel (hydroxypropylcellulose) (HPC) 105 % of control | dose: 100.0 mg/kg/injection, schedule: Q01DX009 (ip), vehicle: Klucel (hydroxypropylcellulose) (HPC) 92 % of control | [8] 101 % of control | dose: 200.0 mg/kg/injection, schedule: Q01DX009 (ip), vehicle: Klucel (hydroxypropylcellulose) (HPC) 87 % of control | dose: 200.0 mg/kg/injection, schedule: Q04DX003 (ip), vehicle: Klucel (hydroxypropylcellulose) (HPC) 106 % of control | dose: 400.0 mg/kg/injection, schedule: Q04DX003 (ip), vehicle: Klucel (hydroxypropylcellulose) (HPC) 86 % of control

O=C(O)C(=O)c1c(O)n(-c2ccccc2)c2ccccc12
inactive: dose: 25.0 mg/kg/injection, schedule: Q01DX001 (ip), vehicle: Klucel (hydroxypropylcellulose) (HPC) 95 % of control | dose: 50.0 mg/kg/injection, schedule: Q01DX001 (ip), vehicle: Klucel (hydroxypropylcellulose) (HPC) 95 % of control | dose: 100.0 mg/kg/injection, schedule: Q01DX001 (ip), vehicle: Klucel (hydroxypropylcellulose) (HPC) 93 % of control and 92 % of control

CC(=O)NC1CON=C1OS(=O)(=O)c1ccc(C)cc1 (stereo not given)
inactive: [3] 89 % of control | [4] 89 % of control | [5] 100 % of control
